Patent publication US20220251092A1, “CASEIN KINASE 1EPSILON INHIBITOR, PHARMACEUTICAL COMPOSITION AND APPLICATION THEREOF” (HANGZHOU HEALZEN THERAPEUTICS CO., LTD., priority 2019, published 2022)
pIC50: −log10 of the molar value. Like-named read-outs stand apart in the source and are kept apart here.

Tests used:
[1] = target: T1, CK1ε (Homo sapiens, UniProt P49674); details: cited from earlier work
[2] = target: T1, CK1ε; test: CK1ε kinase activity assay (Caliper, FAM-labelled polypeptide); type: biochemical
Description: The in-vitro assay of inhibitory activity of the compound herein against CK1ε kinase was:
(1) preparation of 1× kinase basic buffer and stop buffer: • 1×kinase basic buffer: 50 mM HEPES, pH 7.5; and 0.0015% Brij-35; • stop buffer: 100 mM HEPES, pH 7.5; 0.015% Brij-35; 0.2% Coating Reagent #3; and 50 mM EDTA.
(2) preparation of the test compound: • a 50× (“n×” represents dilution factor, same hereafter) stock solution of the compound with DMSO (10 mM, DMSO) to obtain stock solution I for use; […] of stock solution I was placed in a 96-well plate, each compound sample was diluted by 5-fold serial dilution till 10 concentrations was obtained while ensuring 10 μl of drug solution in each well; meanwhile, 100 μl of DMSO was used as a blank control group and a negative control group without enzyme substrate; • a separate 96-well plate was prepared, and to 10 μl of the above compound,
90 μl of 1× kinase foundation buffer was added, mixed well for 10 min to obtain a mixture.

[3] = test system: OCI-LY10 cells; test: In-vitro anti-tumor activity, OCI-LY10 cells, CCK-8; type: cell-based, human; details: for pIC50: Homo sapiens, OCI-LY10, 72h, CCK-8
Description: The in-vitro anti-tumor activities of the synthesized compounds were determined using a diffuse large B-cell lymphoma (OCI-LY10) cell strain:
Drug preparation method: The drug was dissolved in DMSO to make a stock solution of 10 mM and diluted in a certain ratio to obtain 7 different concentrations (test concentration: 100×).
In vitro culture of tumor cells: The selected OCI-LY10 cells were incubated with a medium of IMDM+fetal bovine serum in a 5% CO2 cell culture incubator at 37° C., and were passaged when the cell density grew to 70-90% (adherent cells were passaged after digestion with Duck's EDTA) for later experiments as needed. Four thousand cells/200 μl/well were seeded in a 96-well plate and incubated overnight in a 5% CO2 cell incubator at 37° C. Two μl of the compounds were dispensed in each well at final concentrations of […], and incubation was performed together for 72h in a 5% CO2 cell incubator at 37° C. with DMSO (2%) as control. After 72h, 20 μl of CCK-8 solution was added and the plate was placed in a 5% CO2 cell culture incubator at 37° C. for 4h. Wells with the corresponding amounts of cell culture medium and CCK-8 solution but without cells were used as blank controls. The absorbance (OD values) was measured at 450 nm using an enzyme marker, and the obtained data were used to calculate the IC50.

[4] = test system: Karpas299 cells; test: In-vitro anti-tumor activity, Karpas299 cells, CellTiter-Glo; type: cell-based; details: Homo sapiens, KARPAS-299, Karpas299, 72h
Description: In-vitro anti-tumor activities of the synthesized compounds were determined using Human Non-Hodgkin's Ki-positive Large Cell Lymphoma (Karpas299) cell strain:
Drug preparation method: The drugs were dissolved in DMSO to make stock solutions of 10 mM and diluted in a certain ratio to obtain 7 different concentrations (test concentration: 100×).
In vitro culture of tumor cells: The selected Karpas299 cells were incubated in a 500 CO2 cell culture incubator at 37° C. using RPMI-1640^+ fetal bovine serum medium. Four thousand cells/100 μl/well were seeded in a 96-well plate and incubated overnight in a 500 CO2 cell incubator at 37° C. Five μl of the compounds were dispensed in each well at final concentrations of 10 μM, 2.5 μM, 0.625 μM, 0.15625 μM, 0.039063 μM, 0.0097656 μM and 0.0024414 μM, and incubation was performed together for 72h in a 5% CO2 cell incubator at 37° C. with DMSO (0.10%) as controls. After 72h, the CellTiter-Glo buffer and reaction substrate were taken out of the fridge and equilibrated to room temperature. The buffer was then poured into a brown bottle containing the substrate. The bottle was turned up and down so that the substrate powder was fully dissolved. […] A white sealing film was attached to the bottom of the well plate, and the chemiluminescence signal of each well was detected with an Enspire microplate reader. […]

[5] = test system: OCI-LY10 xenograft tumor; test: In vivo pharmacodynamic study, OCI-LY10 subcutaneous xenograft in SCID mice; design: species or system SCID mouse; details: combinations with 17a 6 mg/kg PO QD
Description: OCI-LY10 cells were cultured in an IMDM medium containing 20% FBS and maintained in a 5% CO2 incubator at 37° C. with saturated humidity. OCI-LY10 cells of logarithmic phase were collected and resuspended in an IMDM basic medium containing 50% Matrigel, and the cell concentration was adjusted to 5×10^7/ml. Subcutaneous inoculation of 0.1 ml of the cell suspension was performed aseptically in the right dorsum of mice at a concentration of 5×10^6/0.1 ml/mouse. Once the tumor volume reached about 150 mm^3, the animals were randomly grouped according to tumor volume so that the difference in tumor volume between the groups was less than 10% of the mean value. The date of grouping was recorded as Day 0, and drug administration was started based on the body weight of the animals. During drug administration, body weight of certain animals decreased by more than 15% compared to Day 0 (BWL≥15%), drug administration was discontinued for these animals until their body weight recovered (BWL<15%). The body weight and tumor volume of the animals were measured twice a week during the experiment, and clinical signs were observed and recorded daily.
The efficacy in terms of tumor volume was evaluated by the relative tumor proliferation rate T/C ratio, and T/C (%) was calculated as TRTV/CRTV[…], where TRTV is the relative tumor volume (RTV) of the treatment group and CRTV is the RTV of the negative control group. The RTV was calculated as Vt/V0, where V0 is the tumor volume at the time of grouping and Vt is the tumor volume at each measurement. The drug is considered effective with T/CP≤40% according to NMPA guidelines.
The efficacy in terms of tumor weight was evaluated by TGI (tumor weight inhibition) values, TGI 0%=(TWC−TWT)/TWC×[…], where TWC is tumor weight of control group, and TWT is tumor weight of treatment group. The drug is considered effective with TGI≥58% according to NIH guidelines.

[6] = Bioavailability study in rats; type: in vivo, SD rats; details: rat; for AUC(0-t) / Cmax / Tmax / bioavailability: Sprague-Dawley, plasma; for bioavailability: PO 10 mg/kg vs IV 1 mg/kg of II-A-7a
Description: SD rats were used as the experimental animals, to which drugs of 10 mg/kg were administered by gavage and 1 mg/kg by tail intravenous injection. […] Whole blood (0.3 ml) was collected, 0.1 ml of plasma was separated by centrifugation at 2000 g for 10 min, and the samples were analyzed by LC-MS/MS.

[7] = Table 5, 50 mg/kg PO QD Day 0-38
[8] = Table 4, 100 mg/kg PO QD Day 0-38

T1 sequence (P49674 whole entry): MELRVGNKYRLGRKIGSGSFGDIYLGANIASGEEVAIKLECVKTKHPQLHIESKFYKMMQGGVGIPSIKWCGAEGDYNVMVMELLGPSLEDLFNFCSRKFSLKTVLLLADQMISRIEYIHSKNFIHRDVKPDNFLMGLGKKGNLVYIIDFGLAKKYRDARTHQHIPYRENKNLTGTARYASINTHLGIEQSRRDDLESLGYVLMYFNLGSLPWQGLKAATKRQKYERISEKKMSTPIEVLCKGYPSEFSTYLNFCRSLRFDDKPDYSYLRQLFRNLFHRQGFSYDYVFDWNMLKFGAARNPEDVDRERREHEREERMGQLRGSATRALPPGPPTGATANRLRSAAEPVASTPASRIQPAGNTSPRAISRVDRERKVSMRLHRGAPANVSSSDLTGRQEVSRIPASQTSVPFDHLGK

| Compound | pIC50 [2] | pIC50 ([3]; read-out: IC50) | pIC50 [4] | RTV Day 39 [5, 7] | T/C (%) Day 39 [5, 7] [%] | TGI (%) [5, 7] [%] | Tumor weight [5, 7] [g] | AUC(0-t) ([6]; PO 10 mg/kg) [ng·h/mL] | Cmax ([6]; PO 10 mg/kg) [ng/mL] | Tmax ([6]; PO 10 mg/kg) [h] | bioavailability [6] [%] | also measured |
| --- | --- | --- | --- | --- | --- | --- | --- | --- | --- | --- | --- | --- |
| CC[C@@H](c1nc2cccc(F)c2c(=O)n1-c1ccccc1)n1nc(-c2ccc(OC(C)C)c(F)c2)c2c(N)ncnc21 [CUX-03166] | – | – | – | – | – | – | – | – | – | – | – | pIC50 ([1]; literature values in WO2017079558A1, read-out: CK1ε (IC50)): 4.09 |
| CC(C)Oc1ccc(-c2nn([C@@H](C)c3nc4cccc(F)c4c(=O)n3-c3ccccc3)c3ncnc(N)c23)cc1F [CUX-031723] | – | – | – | – | – | – | – | – | – | – | – | pIC50 ([1]; WO2017079558A1, read-out: IC50 of CK1ε): 5.03 |
| COc1ccc(-c2nn([C@@H](C)c3nc4ccccc4c(=O)n3-c3ccccc3)c3ncnc(N)c23)c(F)c1F [II-A-1a, (S)-2-(1-(4-amino-3-(2,3-difluoro-4-methoxyphenyl)-1H-pyrazolo[3,4-d]pyrimidin-1-yl)ethyl)-3-phenylquinazolin-4(3H)-one] | 6.97 | 6.95 | 6.01 | 1.69 ± 0.27 | 23.12 | 77.46 | 0.270 ± 0.043 | – | – | – | – | – |
| COc1ccc(-c2nn(C(C)c3nc4cccc(Cl)c4c(=O)n3-c3ccccc3)c3ncnc(N)c23)c(F)c1F (stereo not drawn) [II-A-7, 2-(1-(4-amino-3-(2,3-difluoro-4-methoxyphenyl)-1H-pyrazolo[3,4-d]pyrimidin-1-yl)ethyl)-5-chloro-3-phenylquinazolin-4(3H)-one] | 7.01 | 7.66 | – | – | – | – | – | – | – | – | – | fold increase of inhibitory activity against CK1ε ([2]; compared to compound C): 7.2 fold; pIC50 ([3]; read-out: IC50 value): 7.66; fold increase of OCI-LY10 proliferation inhibitory activity ([3]; compared to compound C): 123 fold; RTV Day 39 [5, 8]: 2.23 ± 0.15; T/C (%) Day 39 [5, 8]: 32.35%; TGI (%) [5, 8]: 66.29%; Tumor weight [5, 8]: 0.269 ± 0.028 g |
| COc1ccc(-c2nn([C@@H](C)c3nc4cccc(Cl)c4c(=O)n3-c3ccccc3)c3ncnc(N)c23)c(F)c1F [II-A-7a, (S)-2-(1-(4-amino-3-(2,3-difluoro-4-methoxyphenyl)-1H-pyrazolo[3,4-d]pyrimidin-1-yl)ethyl)-5-chloro-3-phenylquinazolin-4(3H)-one] | 7.35 | 7.99 | 6.07 | 2.11 ± 0.60 | 28.86 | 72.70 | 0.327 ± 0.048 | 5780 | 456 | 6 | 8.02 | AUC(0-t) ([6]; IV 1 mg/kg): 7200 ng·h/mL; Cmax ([6]; IV 1 mg/kg): 1520 ng/mL |
| COc1ccc(-c2nn([C@@H](C)c3nc4cccc(Cl)c4c(=O)n3-c3ccccc3)c3ncnc(N)c23)c(F)c1F.O=S(=O)(O)O [II-D-6, (S)-2-(1-(4-amino-3-(2,3-difluoro-4-methoxyphenyl)-1H-pyrazolo[3,4-d]pyrimidin-1-yl)ethyl)-5-chloro-3-phenylquinazolin-4(3H)-one sulfate] | – | – | – | – | – | – | – | 21500 | 2130 | 1.67 | 29.8 | increase in bioavailability ([6]; salt vs compound in the free state (II-A-7a)): 3.7 fold |
